Source: article PMC4418665, “Cyclization of the Urokinase Receptor-Derived Ser-Arg-Ser-Arg-Tyr Peptide Generates a Potent Inhibitor of Trans-Endothelial Migration of Monocytes” (PLoS ONE, 2015)
Peptide text beside a SMILES is read from it.

Experiments:
FPR1 = molecular target: T1, FPR1 (Homo sapiens, UniProt P21462); assay: Ligand binding assay, competition with FITC-fMLF at 4°C, THP-1 cells; set-up: host or cells: THP-1 human monocytic leukemia cells; conditions: excess (100 nM) unlabeled peptide 60 min at 4°C, then 10 nM FITC-fMLF 60 min at 4°C; triplicates
T1 sequence (P21462 1-350): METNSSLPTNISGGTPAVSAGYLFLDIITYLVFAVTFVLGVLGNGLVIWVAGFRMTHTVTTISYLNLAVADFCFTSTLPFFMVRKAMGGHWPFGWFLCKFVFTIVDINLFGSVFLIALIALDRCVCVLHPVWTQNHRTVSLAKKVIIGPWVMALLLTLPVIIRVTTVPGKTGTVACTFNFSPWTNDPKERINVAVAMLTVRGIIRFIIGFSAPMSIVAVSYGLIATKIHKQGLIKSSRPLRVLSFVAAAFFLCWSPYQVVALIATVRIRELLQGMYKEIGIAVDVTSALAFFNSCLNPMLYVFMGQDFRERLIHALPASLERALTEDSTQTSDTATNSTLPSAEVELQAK
Procedure: Once documented that both SRSRY and [SRSRY] peptides compete with fMLF for binding to FPR1, we investigated the effect of [SRSRY] on the motility of monocytes. Preliminarily, we assessed whether [SRSRY] is a ligand of FPR1 on monocyte cell surface. […] (Fig 3A). When binding experiments were performed at 37°C, FPR1 appeared mainly localized within the cytoplasm, adjacent but outside the nucleus of THP-1 cells.
Fig 3 The peptide [SRSRY] binds to FPR1 on THP-1 cell surface. A. THP-1 cells (1.5 x10^6 cells/sample) were pre-incubated with diluents (None), 100 nM fMLF, 100 nM SRSRY or 100 nM [SRSRY] peptides for 60 minutes at 4°C, then exposed to 10 nM N-formyl-Nle-Leu-Phe-Nle-Tyr-Lys-fluorescein (FITC-fMLF) for additional 60 minutes at 4°C. Fluorimetric measurement of cell-associated fluorescence was assed using 485 nm excitation and 535 nm emission filters. Data are expressed as a percentage of the fluorescence associated to THP-1 cells exposed to FITC-fMLF alone (None = 100%) and represent a mean ± SD from triplicates. *Statistical significance (t-test) against None with p<0.001. B. THP-1 cells incubated with diluents (None), 100 nM fMLF, 100 nM SRSRY or 100 nM [SRSRY] peptides for 30 minutes at 37°C and exposed to 10 nM FITC-fMLF for additional 30 minutes at 37°C. Scale bar: 5 μm. Original magnifications: 630x. […]

[1] = Serum stability in human serum (RP-HPLC); format: in vitro ADME; conditions: 37°C, peptide 10^-2 mol/L, acetonitrile precipitation; for remaining at 1 h: RP-HPLC C18, % of concentration at time 0, read-out: residual concentration after one hour of exposure to serum; for remaining at 24 h: RP-HPLC C18, % of concentration at time 0, read-out: residual concentration after 24 hours in serum
Procedure: Cyclization of peptides listed in Table 1was obtained as described in the Material and Methods, using the strategy depicted in the S1 Fig. The stability of the linear peptide Ser-Arg-Ser-Arg-Tyr (SRSRY) and cyclized peptide Ser-Arg-Ser-Arg-Tyr [SRSRY] in human serum was investigated through incubation of the peptide at a 10^–2 mol/L in human serum and samples were taken at different time points and analysed by Reversed-phase chromatography (RP-HPLC). Serum-dependent degradation of peptides was monitored for up to 24 hours.
Fig 1 Stability of SRSRY and [SRSRY] peptides in human serum. The stability of [SRSRY] and SRSRY was performed by the injection of the peptide at a 10^–2 mol/L in human serum at 37°C. Intervals of analysis by RP-HPLC on the compound incubated in serum were carried out growing with time from 1 to 24 hours. Values are expressed as a percentage of peptide concentration assessed at time 0. [SRSRY]
The stability of SRSRY and [SRSRY] was investigated in human serum. The peptides were incubated at 37°C in human serum at a concentration of 10^-2mol/L. Aliquots ([…]) of serum were removed at time points varying from 0, 1, 2, 4, 6, and 24 hours and acetonitrile ([…]) was added to each aliquot before centrifuging (13000 rpm, 15 min). Aliquots ([…]) of the supernatant were then analyzed by RP-HPLC after passing through Phenomenex Luna 100A C18 5μ, linear gradient from 0–90% acetonitrile in water over 25 minutes.

Row | binding of FITC-fMLF to THP-1 cells (FPR1) | remaining at 1 h [1] [%] | remaining at 24 h [1] [%] | Structure (SMILES)
1 | dramatically reduced | < 75 | < 50 | N=C(N)NCCC[C@H](NC(=O)[C@H](CO)NC(=O)[C@H](CCCNC(=N)N)NC(=O)[C@@H](N)CO)C(=O)N[C@@H](Cc1ccc(O)cc1)C(N)=O [SRSRY, H-Ser-Arg-Ser-Arg-Tyr-NH2] (H-SRSRY-NH2)
2 | dramatically reduced | < 85 | > 80 | N=C(N)NCCC[C@@H]1NC(=O)[C@H](CO)NC(=O)[C@H](Cc2ccc(O)cc2)NC(=O)[C@H](CCCNC(=N)N)NC(=O)[C@H](CO)NC1=O [[SRSRY], [Ser-Arg-Ser-Arg-Tyr]] (cyclo(RSRYS))
